Measurements published in US20240391862A1, “(1,4,5-TRISUBSTITUTED-1H-PYRAZOL-3-YL)OXY-2-ALKOXY ALKYL ACIDS AND THEIR DERIVATIVES, THEIR SALTS AND THEIR USE AS HERBICIDAL AGENTS” (Bayer AKtiengesellschaft, priority 2021, published 2024).

Experiments:
[1] = tested on: ZEAMX; experiment: Post-emergence herbicidal effect and crop plant compatibility, greenhouse pot test; assay type: in vivo, Zea mays; conditions: one-leaf stage, rated visually after about 3 weeks vs untreated controls
How it was run: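 Sandy loam pots, greenhouse. One-leaf stage (2–3 wk after sowing) foliar spray; WP/EC in water + 0.5% additive, 600 l/ha; 20–320 g/ha. Visual score ~3 wk, 0–100% vs untreated.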

[2] = tested on: ABUTH; experiment: Post-emergence herbicidal effect, greenhouse pot test; assay type: in vivo, Abutilon theophrasti; conditions: visual rating about 3 weeks after treatment
How it was run: (§1)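 Visual % activity scored roughly 3 weeks post-spray against untreated plants, where 100% means death and 0% equals control. Plants were treated at the one-leaf stage, 2 to 3 weeks after sowing in sandy loam, at 20 to 320 g/ha.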

[3] = tested on: ALOMY; experiment: as above; assay type: in vivo, Alopecurus myosuroides; conditions: visual rating about 3 weeks after treatment
How it was run: as §1

[4] = tested on: AMARE; experiment: as above; assay type: in vivo, Amaranthus retroflexus; conditions: visual rating about 3 weeks after treatment
How it was run: as §1

[5] = tested on: AVEFA; experiment: as above; assay type: in vivo, Avena fatua; conditions: visual rating about 3 weeks after treatment
How it was run: as §1

[6] = tested on: DIGSA; experiment: as above; assay type: in vivo, Digitaria sanguinalis; conditions: visual rating about 3 weeks after treatment
How it was run: as §1

[7] = tested on: ECHCG; experiment: as above; assay type: in vivo, Echinochloa crus-galli; conditions: for Post-emergence effect against ECHCG: 20 g/ha, visual rating about 3 weeks after treatment
How it was run: as §1

[8] = tested on: LOLRI; experiment: as above; assay type: in vivo, Lolium rigidum
How it was run: as §1

[9] = tested on: MATIN; experiment: as above; assay type: in vivo, Tripleurospermum inodorum
How it was run: as §1

[10] = tested on: PHBPU; experiment: as above; assay type: in vivo, Ipomoea purpurea
How it was run: as §1

[11] = tested on: POLCO; experiment: as above; assay type: in vivo, Fallopia convolvulus
How it was run: as §1

[12] = tested on: SETVI; experiment: as above; assay type: in vivo, Setaria viridis
How it was run: as §1

[13] = tested on: VERPE; experiment: as above; assay type: in vivo, Veronica persica
How it was run: as §1

[14] = tested on: VIOTR; experiment: as above; assay type: in vivo, Viola tricolor
How it was run: as §1

[15] = tested on: KCHSC; experiment: as above; assay type: in vivo
How it was run: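 Greenhouse plants in sandy loam, sprayed post-emergence at the one-leaf stage (2–3 weeks after sowing) with WP or EC formulations in water plus 0.5% additive at 600 l/ha. Rates 20 to 320 g/ha. Activity rated visually after about 3 weeks against untreated controls (0% like control, 100% dead).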

SMILES	Post-emergence effect against ABUTH ([2]; 80 g/ha) [%]	Post-emergence effect against ABUTH ([2]; 320 g/ha) [%]	Post-emergence effect against ALOMY ([3]; 320 g/ha) [%]	Post-emergence effect against AMARE ([4]; 80 g/ha) [%]	Post-emergence effect against AMARE ([4]; 320 g/ha) [%]	Post-emergence effect against AVEFA ([5]; 80 g/ha) [%]	Post-emergence effect against AVEFA ([5]; 320 g/ha) [%]	Post-emergence effect against DIGSA ([6]; 320 g/ha) [%]	Post-emergence effect against ECHCG [7] [%]	Post-emergence effect against ECHCG in % ([7]; 80 g/ha) [%]	Post-emergence effect against ECHCG in % ([7]; 320 g/ha) [%]	Post-emergence effect against LOLRI in % ([8]; 320 g/ha) [%]	Post-emergence effect against MATIN in % ([9]; 320 g/ha) [%]	Post-emergence effect against PHBPU in % ([10]; 80 g/ha) [%]	Post-emergence effect against PHBPU in % ([10]; 320 g/ha) [%]	Post-emergence effect against POLCO in % ([11]; 80 g/ha) [%]	Post-emergence effect against POLCO in % ([11]; 320 g/ha) [%]	Post-emergence effect against SETVI in % ([12]; 80 g/ha) [%]	Post-emergence effect against SETVI in % ([12]; 320 g/ha) [%]	Post-emergence effect against VERPE in % ([13]; 80 g/ha) [%]	other results
COC(=O)CCOC(=O)C(OC)Oc1nn(-c2ncccc2F)c(-c2cncc(F)c2)c1C1CC1 (stereo not drawn) [Example I-82]	90	90	90	90	90	90	90	90	80	90	90	90	90	80	90	80	90	90	90	90	Post-emergence effect at 20 g/ha against ZEAMX in % ([1]; 20 g/ha): 20%; Post-emergence effect against ABUTH ([2]; 20 g/ha): 80%; Post-emergence effect against DIGSA ([6]; 80 g/ha): 90%; Post-emergence effect against MATIN in % ([9]; 80 g/ha): 80%; Post-emergence effect against POLCO in % ([11]; 20 g/ha): 80%; Post-emergence effect against SETVI in % ([12]; 20 g/ha): 90%; Post-emergence effect against VERPE in % ([13]; 320 g/ha): 90%; Post-emergence effect against VIOTR in % ([14]; 20 g/ha): 80%; Post-emergence effect against VIOTR in % ([14]; 80 g/ha): 90%; Post-emergence effect against VIOTR in % ([14]; 320 g/ha): 90%; Post-emergence effect against KCHSC in % ([15]; 20 g/ha): 90%; Post-emergence effect against KCHSC in % ([15]; 80 g/ha): 90%; Post-emergence effect against KCHSC in % ([15]; 320 g/ha): 90%
COC(=O)C(OC)Oc1nn(-c2ncccc2F)c(-c2cncc(F)c2)c1C1CC1 (stereo not drawn) [Example I-86]	80	80	90	80	90	90	90	80	80	90	90	90	90	90	90	80	90	90	90	80	plant injury at 20 g/ha ([1]; Zea mays, 504 h, 20 g/ha, read-out: Post-emergence effect at 20 g/ha against ZEAMX in %): 0%; plant injury at 80 g/ha ([1]; Zea mays, 504 h, 80 g/ha, read-out: Post-emergence effect at 80 g/ha against ZEAMX in %): 0%; Post-emergence effect against ALOMY ([3]; 80 g/ha): 90%; pest or weed control at 20 g/ha ([5]; Avena fatua, 504 h, 20 g/ha, read-out: Post-emergence effect against AVEFA): 80%; Post-emergence effect against LOLRI in % ([8]; 80 g/ha): 90%; pest or weed control at 20 g/ha ([8]; Lolium rigidum, 504 h, 20 g/ha, read-out: Post-emergence effect against LOLRI in %): 80%; Post-emergence effect against PHBPU in % ([10]; 20 g/ha): 80%; pest or weed control at 20 g/ha ([11]; Fallopia convolvulus, 504 h, 20 g/ha, read-out: Post-emergence effect against POLCO in %): 80%; Post-emergence effect against VERPE in % ([13]; 320 g/ha): 90%; Post-emergence effect against VIOTR in % ([14]; 80 g/ha): 90%; Post-emergence effect against VIOTR in % ([14]; 320 g/ha): 90%; Post-emergence effect against KCHSC in % ([15]; 80 g/ha): 90%; Post-emergence effect against KCHSC in % ([15]; 320 g/ha): 90%
